“And” between values parts separate entries of the source, which are not always exact repeats. Equal values may be shown once. Read-outs that look alike come from different tables or passages of the source.
Columns and labels:
xanthine oxidase (XOD) [1] = target: T1, xanthine oxidase (XOD) (Homo sapiens, UniProt P47989); test: biochemical
Protocol: Anti-xanthine oxidase activity was assayed spectrophotometrically under aerobic conditions. First, 50 µL (50 µg/mL) of samples were added to 60 µL of phosphate buffer (pH 7.5) and 30 µL of xanthine oxidase enzyme solution (0.01 units/mL in phosphate buffer; pH 7.5). After pre-incubation at 25 °C for 15 min, the reaction was initiated by the addition of 60 µL of xanthine substrate solution (prepared in the same buffer). The assay mixture was incubated at 25 °C for 5 min. […] The assay was performed in triplicate. […] Tests were carried out in triplicate.

15-lipoxygenase = target: T2, 15-lipoxygenase (Glycine max, UniProt P08170); test: Anti-inflammatory activity (anti 15-lipoxygenase); assay type: biochemical; conditions: at 100 µM
T2 sequence (P08170 1-839): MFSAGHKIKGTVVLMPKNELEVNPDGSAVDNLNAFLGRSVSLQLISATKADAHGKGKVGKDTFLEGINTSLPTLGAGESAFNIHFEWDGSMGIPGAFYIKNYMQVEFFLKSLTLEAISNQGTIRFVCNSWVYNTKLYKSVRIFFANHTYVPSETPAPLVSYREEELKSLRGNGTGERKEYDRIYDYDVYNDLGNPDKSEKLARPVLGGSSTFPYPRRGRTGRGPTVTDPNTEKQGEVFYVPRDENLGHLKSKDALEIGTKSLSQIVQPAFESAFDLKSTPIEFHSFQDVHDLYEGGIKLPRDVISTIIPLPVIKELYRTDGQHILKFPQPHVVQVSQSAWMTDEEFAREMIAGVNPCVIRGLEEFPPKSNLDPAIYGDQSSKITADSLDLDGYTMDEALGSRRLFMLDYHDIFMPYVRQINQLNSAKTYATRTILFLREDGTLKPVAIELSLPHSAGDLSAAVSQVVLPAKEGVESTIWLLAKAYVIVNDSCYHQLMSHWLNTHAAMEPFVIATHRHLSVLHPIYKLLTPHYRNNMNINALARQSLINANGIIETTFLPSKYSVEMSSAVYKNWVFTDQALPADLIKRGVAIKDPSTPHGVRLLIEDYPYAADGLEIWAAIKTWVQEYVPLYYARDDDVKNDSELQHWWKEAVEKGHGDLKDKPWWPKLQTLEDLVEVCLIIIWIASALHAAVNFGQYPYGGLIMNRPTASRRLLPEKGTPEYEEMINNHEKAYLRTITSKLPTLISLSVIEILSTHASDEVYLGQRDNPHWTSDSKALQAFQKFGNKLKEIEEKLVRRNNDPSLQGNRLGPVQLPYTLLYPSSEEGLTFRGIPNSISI

OVCAR-3 cells = test: Cytotoxic activity, MTT assay, OVCAR-3; assay type: cell-based; conditions: Homo sapiens, OVCAR-3, 72 h, read-out: IC50 OVCAR-3
Protocol: (§1) The cancer cell lines used in this study were HCT116 (colorectal carcinoma), IGROV1 (ovarian cancer), OVCAR3 (ovarian cancer), and MCF7 (mammary gland/breast cancer). […] Cell lines were maintained in culture and were incubated at 37 °C in an incubator with 5% CO2 in a humidified atmosphere. All tests were established at 80% of confluence, and viability was estimated with a trypan blue exclusion assay.
The cytotoxic activities of molecules against cancer cell lines were evaluated using an MTT assay. The MTT colorimetric assay was performed using 96-well plates. Cells were seeded in a 96-well plate, at a concentration of 10 × 10^3 cells/well for HCT116 and 12 × 10^3 cells/well for MCF7, IGROV1, and OVAR. Adherent cells were dispatched and incubated at 37 °C overnight in a 5% CO2-enriched atmosphere. […] After that, the medium was removed, and cells were treated with 50 µL of 3-(4,5-dimethylthazolk-2-yl)-2,5-diphenyl tetrazolium bromide (MTT) solution (3 mg/mL in PBS) at 37 °C for 20 to 40 min. To dissolve the […], we added 80 µL of 100% DMSO. Optical density was measured at 540 nm. All tests were established in triplicate. […]

IGROV-1 cells = test: Cytotoxic activity, MTT assay, IGROV-1; conditions: for Cytotoxic activity against IGROV-1 (in words): at 100 µM; for IC50: Homo sapiens, IGROV-1, read-out: IC50 IGROV-1
Protocol: as §1
The cytotoxic activities of molecules against cancer cell lines were evaluated using an MTT assay. The MTT colorimetric assay was performed using 96-well plates. Cells were seeded in a 96-well plate, at a concentration of 10 × 10^3 cells/well for HCT116 and 12 × 10^3 cells/well for MCF7, IGROV1, and OVAR. Adherent cells were dispatched and incubated at 37 °C overnight in a 5% CO2-enriched atmosphere. Cells in the exponential growth phase were incubated at 37 °C for 72 h, with each tested sample at 50 µg/mL. After that, the medium was removed, and cells were treated with 50 µL of 3-(4,5-dimethylthazolk-2-yl)-2,5-diphenyl tetrazolium bromide (MTT) solution (3 mg/mL in PBS) at 37 °C for 20 to 40 min. To dissolve the […], we added 80 µL of 100% DMSO. Optical density was measured at 540 nm. All tests were established in triplicate. The anti-cancer effect of samples was estimated in terms of growth inhibition percentage.

[2] = target: superoxide dismutase (SOD) (Homo sapiens, UniProt P00441); assay type: biochemical; conditions: at 100 µM
Chain of superoxide dismutase (SOD) (P00441 whole entry): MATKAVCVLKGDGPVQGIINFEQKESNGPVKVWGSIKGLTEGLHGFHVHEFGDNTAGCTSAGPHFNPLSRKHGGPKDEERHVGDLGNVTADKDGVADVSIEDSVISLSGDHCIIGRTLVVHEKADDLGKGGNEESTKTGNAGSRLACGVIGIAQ

[3] = cited from earlier work
[4] = set-up: method as in PMID 26504472; conditions: tested at 147.78 µM ref 17; cited from earlier work
[5] = system: porcine pancreas α-amylase; set-up: method as in doi:10.15436/2377-0619.15.042; conditions: at 1 mM, different protocols (chromogenic substrate p-nitrophenyl-α-D-maltopentaoside) ref 18; cited from earlier work
12-lipoxygenase = target: 12-lipoxygenase; set-up: method as in PMID 11447334; conditions: previous report ref 22; cited from earlier work
Aβ1-40-induced dementia = system: Aβ1-40-induced dementia; set-up: method as in PMID 25274114; conditions: rats ref 20; cited from earlier work
xanthine oxidase (XOD) [6] = target: T1, xanthine oxidase (XOD); assay type: biochemical; conditions: at 100 µM

T1 sequence (P47989 whole entry, species assumed): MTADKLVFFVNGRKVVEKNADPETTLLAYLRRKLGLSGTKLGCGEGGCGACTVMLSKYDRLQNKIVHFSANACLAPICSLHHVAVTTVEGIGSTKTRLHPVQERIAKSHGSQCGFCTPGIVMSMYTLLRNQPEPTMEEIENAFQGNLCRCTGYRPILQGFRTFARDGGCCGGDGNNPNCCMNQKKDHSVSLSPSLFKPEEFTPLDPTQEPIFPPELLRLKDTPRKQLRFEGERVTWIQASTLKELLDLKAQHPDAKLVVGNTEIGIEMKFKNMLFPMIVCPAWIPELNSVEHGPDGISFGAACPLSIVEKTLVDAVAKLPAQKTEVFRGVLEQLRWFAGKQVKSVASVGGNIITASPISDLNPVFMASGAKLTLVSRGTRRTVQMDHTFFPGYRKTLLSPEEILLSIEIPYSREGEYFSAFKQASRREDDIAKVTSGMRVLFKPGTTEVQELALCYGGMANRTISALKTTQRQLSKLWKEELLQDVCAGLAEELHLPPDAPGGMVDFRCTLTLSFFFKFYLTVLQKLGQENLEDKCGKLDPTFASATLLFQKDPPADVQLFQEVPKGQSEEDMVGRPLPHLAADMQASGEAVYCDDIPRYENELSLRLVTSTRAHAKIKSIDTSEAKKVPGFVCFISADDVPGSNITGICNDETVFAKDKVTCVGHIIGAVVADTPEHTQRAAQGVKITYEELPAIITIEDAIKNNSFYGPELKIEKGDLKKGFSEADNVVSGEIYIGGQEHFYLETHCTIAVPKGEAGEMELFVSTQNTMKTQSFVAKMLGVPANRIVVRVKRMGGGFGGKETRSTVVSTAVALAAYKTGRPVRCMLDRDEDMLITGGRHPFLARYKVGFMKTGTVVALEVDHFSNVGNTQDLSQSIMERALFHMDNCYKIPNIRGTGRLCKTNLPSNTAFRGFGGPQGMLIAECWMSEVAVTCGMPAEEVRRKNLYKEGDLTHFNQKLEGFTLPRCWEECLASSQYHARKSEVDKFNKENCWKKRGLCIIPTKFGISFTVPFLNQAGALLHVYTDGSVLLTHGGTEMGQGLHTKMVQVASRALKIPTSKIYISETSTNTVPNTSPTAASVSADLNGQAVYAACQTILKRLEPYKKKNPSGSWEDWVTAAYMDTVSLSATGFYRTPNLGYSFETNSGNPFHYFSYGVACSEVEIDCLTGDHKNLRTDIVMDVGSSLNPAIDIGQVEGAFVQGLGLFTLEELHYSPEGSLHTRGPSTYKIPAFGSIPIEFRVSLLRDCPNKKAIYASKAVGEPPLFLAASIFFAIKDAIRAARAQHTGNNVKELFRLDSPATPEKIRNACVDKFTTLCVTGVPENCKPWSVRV

Row | Structure (SMILES) | IC50 (xanthine oxidase (XOD) [1]) | Anti 15-Lipoxygenase % (15-lipoxygenase) | IC50 (OVCAR-3 cells) | Cytotoxic activity against IGROV-1 (in words) (IGROV-1 cells) | Anti SOD % [2] | IC50 (xanthine oxidase (XOD) [1]; read-out: Anti XOD IC50) | IC50 (IGROV-1 cells) | DPPH assay antioxidant activity ([3]; tested at 147.78 µM ref 17) | ABTS assay antioxidant activity [4] | porcine pancreas α-amylase inhibition [5] | IC50 ([3]; previous study ref 16, read-out: DPPH assay IC50) | IC50 (12-lipoxygenase) | effect on Aβ1-40-induced dementia (Aβ1-40-induced dementia) | Anti XOD % (xanthine oxidase (XOD) [6])
1 | O=c1cc(-c2ccccc2)oc2cc(O)cc(O)c12 [Molecule M1, 5,7-dihydroxyflavone] | > 100 µM | ineffective | > 50 µM | most active | 41.5 ± 1.8% | – | – | – | – | – | – | – | – | –
2 | COc1ccc(-c2oc3c(CC=C(C)C)c(O[C@@H]4O[C@H](CO)[C@@H](O)[C@H](O)[C@H]4O)cc(O)c3c(=O)c2O[C@@H]2O[C@@H](C)[C@H](O)[C@@H](O)[C@H]2O)cc1 [Molecule M2, Icariin] | – | – | > 50 µM | not active | 61.7 ± 1.1% | > 100 µM | > 100 µM | 3.8 ± 1.0% | 14.6 ± 0.1% | – | – | – | – | –
3 | O=c1cc(-c2ccccc2)oc2ccc(O)cc12 [Molecule M3, 6-hydroxyflavone] | – | ineffective | 44.7 ± 1.2 µM | most active | 54.8 ± 3.2% | > 100 µM | – | – | – | 4.5 ± 1.1% | – | – | – | –
4 | O=c1cc(-c2ccccc2)oc2cccc(O)c12 [Molecule M4, 5-hydroxyflavone] | > 100 µM | ineffective | > 50 µM | – | 25.9 ± 2.5% | – | – | – | – | ineffective | – | – | – | –
5 | O=c1cc(-c2ccccc2)oc2cc(O)ccc12 [Molecule M5, 7-hydroxyflavone] | – | ineffective | > 50 µM | most active | 74.3 ± 3.1% and 74.3 ± 3.02% | > 100 µM | – | – | – | 4.8 ± 3.6% | – | – | – | –
6 | O=c1cc(-c2ccccc2)oc2cc(O)c(O)c(O)c12 [Molecule M7, 5,6,7-trihydroxyflavone] | – | – | > 50 µM | – | 71.2 ± 2.3% | > 100 µM | – | – | – | 13.2 ± 2.4% | 21.2 µM | 1 µM | perfected Aβ1-40-induced dementia in rats | –
7 | O=c1cc(-c2cc(O)cc(O)c2)oc2ccccc12 [Molecule M8, 3′,5′-dihydroxyflavone] | – | – | > 50 µM | most active | 52.3 ± 0.9% | 2.3 ± 0.1 µM | – | – | – | – | – | – | – | 75.3 ± 1.6%
8 | O=c1cc(-c2cccc(O)c2)oc2ccc3ccccc3c12 [Molecule M9, 3′-hydroxy-b-naphthoflavone] | – | – | > 50 µM | not active | 19.8 ± 2.9% | > 100 µM | > 100 µM | – | – | – | – | – | – | –
9 | O=c1cc(-c2cccc(O)c2)oc2cc(O)ccc12 [Molecule M13, 7,3′-dihydroxyflavone] | – | – | > 50 µM | most active | 56.6 ± 1.7% | 0.9 ± 0.2 µM | – | – | – | – | – | – | – | 64.2 ± 1.2%
10 | COc1cc(-c2cc(=O)c3ccc4c(O)cccc4c3o2)cc(OC)c1OC [Molecule M18, 7-hydroxy-3′,4′,5′-trimethoxy-α-naphthoflavone] | – | – | > 50 µM | not active | 32.7 ± 3.9% | > 100 µM | > 100 µM | – | – | – | – | – | – | 19.4 ± 1.0%
